Laboratory results as given in patent US8598168B2 (MethylGene Inc., priority 2006, dated 2013).

Experiments:
[1] = system: p21 promoter-driven luciferase in HCT116 cells; test: p21WAF1/Cip1 Assay (p21 promoter-driven luciferase reporter); assay type: cell-based, human; conditions: 16 hours treatment, value designated as reference
Method: HCT116 cells were stably transfected with reporter plasmids encoding the p21 promoter-driven luciferase. Cells were treated with indicated concentration of HDAC inhibitors for 16 hours before cells were harvested and luciferase activity analyzed. The effective concentration (EC) of MS-275 was designated as 1 μM. The ability of HDAC inhibitor was compared with that of MS-275 (T. Suzuki, et. al J. Med. Chem., 1999, 3001-3003).

[2] = Log D (comparison with previously disclosed compounds); assay type: physicochemical; conditions: pH 7.4
[3] = system: human colon cancer HCT116 cells; test: MTT Assay; assay type: cell-based; conditions: HCT-116, 72 hours, Table 21
Method: Compounds at various concentrations were added to human colon cancer HCT116 cells plated in 96-well plates. Cells were incubated for 72 hours at 37° C. in 5% CO2 incubator. MTT (3-[4,5-dimethylthiazol-2-yl]-2,5 diphenyl tetrazolium bromide, Sigma) was added at a final concentration of 0.5 mg/ml and incubated with the cells for 4 hours before an equal volume of solubilization buffer (50% N,N-dimethylformamide, 20% SDS, pH 4.7) was added onto cultured cells. After overnight incubation, solubilized dye was quantified by colorimetric reading at […] using a reference at 630 nM. OD values were converted to cell numbers according to a standard growth curve of the relevant cell line. The concentration which reduces cell numbers to 50% of those of DMSO-treated cells is determined as MTT IC50.

[4] = target: HDAC-1 (Homo sapiens, UniProt Q13547); test: Inhibition of Histone Deacetylase Enzymatic (HDAC-1) Activity; assay type: biochemical; conditions: Table 21
HDAC-1, sequence (Q13547 whole entry): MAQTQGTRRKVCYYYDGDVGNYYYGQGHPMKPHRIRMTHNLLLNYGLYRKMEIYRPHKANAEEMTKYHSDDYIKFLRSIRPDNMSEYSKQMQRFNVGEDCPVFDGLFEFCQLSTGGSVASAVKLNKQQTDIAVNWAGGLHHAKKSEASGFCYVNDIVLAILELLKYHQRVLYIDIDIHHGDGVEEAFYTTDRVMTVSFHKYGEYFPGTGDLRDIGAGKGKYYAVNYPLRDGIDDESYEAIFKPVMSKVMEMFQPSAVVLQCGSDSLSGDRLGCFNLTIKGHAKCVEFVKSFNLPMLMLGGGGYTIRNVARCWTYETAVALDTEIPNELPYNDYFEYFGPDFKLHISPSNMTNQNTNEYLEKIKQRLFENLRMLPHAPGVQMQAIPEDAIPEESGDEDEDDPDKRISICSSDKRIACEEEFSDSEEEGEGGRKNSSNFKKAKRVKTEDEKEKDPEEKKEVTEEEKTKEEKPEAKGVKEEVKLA
Method: The following protocol was used to assay the compounds of the invention.
The mixture was pre-incubated for 5 minutes at room temperature. The reaction was started by bringing the temperature to 37° C. and adding 15 μl substrate. Total reaction volume was 50 μl.

Compound | logD [2] | IC50 [3] | IC50 [4] | effective concentration (EC) to induce p21 expression [1]
Nc1ccccc1NC(=O)c1ccc(CNC(=O)OCc2cccnc2)cc1 [MS-275] |  |  |  | 1 µM
Nc1ccc(-c2cccs2)cc1NC(=O)c1ccc(CN2CCN(Cc3ccccc3)CC2)cc1 [compound 91, N-(2-amino-5-(thiophen-2-yl)phenyl)-4-((4-benzylpiperazin-1-yl)methyl)-benzamide] | 4.01 | < 1000 nM | < 1000 nM | 
CN(C)CCSc1ccc(C(=O)Nc2cc(-c3cccs3)ccc2N)cc1 [compound 106, N-(2-amino-5-(thiophen-2-yl)phenyl)-4-(2-(dimethyl-amino)ethylthio)-benzamide] | 2.85 | 1000 to 5000 nM | < 1000 nM | 
CN(C)CCOC(=O)NCc1ccc(C(=O)Nc2cc(-c3cccs3)ccc2N)cc1 [compound 221, 2-(Dimethylamino)ethyl 4-(2-amino-5-(thiophen-2-yl)phenylcarbamoyl)benzylcarbamate] | 1.85 | < 1000 nM | < 1000 nM | 
CN(C)CCN(C)C(=O)NCc1ccc(C(=O)Nc2cc(-c3cccs3)ccc2N)cc1 [compound 222, N-(2-amino-5-(thiophen-2-yl)phenyl)-4-((3-(2-(dimethylamino)ethyl)-3-methylureido)methyl)benzamide] | 1.05 | < 1000 nM | < 1000 nM | 
CN(C)[C@H]1CC(=O)N(Cc2ccc(C(=O)Nc3cc(-c4cccs4)ccc3N)cc2)C1=O [compound 242, (S)—N-(2-Amino-5-(thiophen-2-yl)phenyl)-4-((3-(dimethylamino)-2,5-dioxopyrrolidin-1-yl)methyl)benzamide] | 1.81 | 1000 to 5000 nM | < 1000 nM | 
Nc1ccc(-c2cccs2)cc1NC(=O)c1ccc(CN2CC[C@H](Nc3cccnc3)C2)cc1 [compound 249, (S)—N-(2-Amino-5-(thiophen-2-yl)phenyl)-4-((3-(pyridin-3-ylamino)pyrrolidin-1-yl)methyl)benzamide] | 3.27 | < 1000 nM | < 1000 nM | 

Continued, in another order:

logD [2] | IC50 [3] | IC50 [4] | Compound | effective concentration (EC) to induce p21 expression [1]
3.15 | < 1000 nM | < 1000 nM | Nc1ccc(-c2cccs2)cc1NC(=O)c1ccc(CN2CCCC2)cc1 [compound 90, N-(2-amino-5-(thiophen-2-yl)phenyl)-4-(pyrrolidin-1-ylmethyl)-benzamide] | 
1.94 | < 1000 nM | < 1000 nM | CN(C)[C@H]1CCN(c2ccc(C(=O)Nc3cc(-c4cccs4)ccc3N)cc2)C1 [compound 101, (S)—N-(2-Amino-5-(thiophen-2-yl)phenyl)-4-(3-(dimethylamino)pyrrolidin-1-yl)benzamide] | 
1.52 | < 1000 nM | < 1000 nM | CC(C)N1CCN(c2ccc(C(=O)Nc3cc(-c4cccs4)ccc3N)cc2)CC1 [compound 102, N-(2-amino-5-(thiophen-2-yl)phenyl)-4-(4-isopropyl-piperazin-1-yl)benzamide] | 
2.68 | < 1000 nM | < 1000 nM | Nc1ccc(-c2cccs2)cc1NC(=O)c1ccc(N2CCN(C3CCCC3)CC2)cc1 [compound 103, N-(2-amino-5-(thiophen-2-yl)phenyl)-4-(4-cyclopentyl-piperazin-1-yl)-benzamide] | 
2.51 | < 1000 nM | < 1000 nM | Nc1ccc(-c2cccs2)cc1NC(=O)c1ccc(N2CCC(N3CCOCC3)CC2)cc1 [compound 104, N-(2-amino-5-(thiophen-2-yl)phenyl)-4-(4-morpholino-piperidin-1-yl)benzamide] | 
1.6 | < 1000 nM | < 1000 nM | Nc1ccc(-c2cccs2)cc1NC(=O)c1ccc(N2CCC(N3CCCC3)CC2)cc1 [compound 105, N-(2-amino-5-(thiophen-2-yl)phenyl)-4-(4-(pyrrolidin-1-yl)piperidin-1-yl)benzamide] | 
1.78 | < 1000 nM | < 1000 nM | COCCN1CCN(c2ccc(C(=O)Nc3cc(-c4cccs4)ccc3N)cc2)CC1 [compound 108, N-(2-amino-5-(thiophen-2-yl)phenyl)-4-(4-(2-methoxyethyl)-piperazin-1-yl)benzamide] | 
